Measurements reported in patent US20130338228A1, “METHODS FOR FA[…] RECOVERY AFTER A PERIOD OF DISUSE USING BETA-HYDROXY-BETA-METHYLBUTYRATE” (ABBOTT LABORATORIES, priority 2010, published 2013).

Key:
Type in all cases: in vivo, Fischer 344× Brown Norway rats
[1] = test system: plantar flexor muscle group; assay: Maximal isometric force measurement after hind limb suspension and reloading
Experimental: (§1) Sixty-four aged (34 months of age) Fischer 344× Brown Norway rats are randomly assigned to a hind limb suspended (HS) group or a reloaded (R) group. The rats in each test group receive either: (1) 1 ml Ca-HMB (170 mg/ml distilled water); or (2) 1 ml of distilled water by gavage feeding per day. After one week, thirty-two rats (eight rats from the HS group receiving Ca-HMB; eight rats from the R group receiving Ca-HMB; eight rats from the HS group receiving water; and eight rats from the R group receiving water) are designated as part of the control groups (HS Control Group (16 rats) or R Control Group (16 rats)). The control groups maintain normal mobility throughout the test period, and are allowed to move freely around their cages. Data is collected from the HS Control Group after 14 days from initiation of the study prior to and following sacrifice. Data is collected from the R Control Group after 28 days from initiation of the study prior to and following sacrifice.
The remaining thirty-two rats (16 rats in HS Group and 16 rats in R Group) continue to receive either Ca-HMB or water and are subjected to hind limb suspension for 14 days. For the hind limb suspension, tape is applied along the proximal one-third of the tail and then placed through a wire harness that is attached to a fishlike swivel at the top of a specially designed hind limb suspension cage. The suspension allowed the rats 360° of movement around the cage. […] The suspension height is monitored and adjusted to prevent contact between the hind limb and any supportive surface of the cage. […]
Force measurements: All force measurements are made while the animals are anesthetized with 98% oxygen and 2% isoflurane gas. […] The maximal isometric force of the plantar flexor muscle group is evaluated by stimulating the tibial nerve using supramaximal square wave pulses that are 4 V, 100 Hz for a duration of 3 seconds using a SD9 stimulator (Grass Medical Instruments, Quincy, Mass.). Maximal force is determined using Labview based software. […]

Bcl-2 = assay: Western immunoblot of Bcl-2 in hind limb muscles; conditions: plantaris and soleus after either hind limb suspension or reloading (both conditions increase Bcl-2 by about 100%)
Experimental: (§2) Sixty-four aged (34 months of age) Fischer 344× Brown Norway rats are randomly assigned to a hind limb suspended (HS) group or a reloaded (R) group. The rats in each test group receive either: (1) 1 ml Ca-HMB (170 mg/ml distilled water); or (2) 1 ml of distilled water by gavage feeding per day. After one week, thirty-two rats (eight rats from the HS group receiving Ca-HMB; eight rats from the R group receiving Ca-HMB; eight rats from the HS group receiving water; and eight rats from the R group receiving water) are designated as part of the control groups (HS Control Group (16 rats) or R Control Group (16 rats)). […]
(§3) The remaining thirty-two rats (16 rats in HS Group and 16 rats in R Group) continue to receive either Ca-HMB or water and are subjected to hind limb suspension for 14 days. […] The suspension height is monitored and adjusted to prevent contact between the hind limb and any supportive surface of the cage. […]
(§4) Approximately seventy-five […] of muscle is homogenized in ice-cold RIPA buffer (1% Triton x-100, 150 mM NaCl, 5 mM EDTA, 10 mM Tris; pH 7.4), containing protease inhibitors (P8340, Sigma-Aldrich, St. Louis, Mo.), and phosphatase inhibitors (P2850; P5726, Sigma-Aldrich). The muscle homogenates are centrifuged at 1000×g for 5 minutes at 4° C., and the protein content of the supernatant is measured (500-0116; BioRad, Hercules, Calif.). […]

cleaved caspase-3 = assay: Western immunoblot of cleaved caspase-3 in hind limb muscles
Experimental: as §2, §3, §4

[2] = test system: soleus and plantaris muscle fibers; assay: Muscle fiber cross sectional area (CSA) by planimetry
Experimental: as §1
(§5) The remaining thirty-two rats (16 rats in HS Group and 16 rats in R Group) continue to receive either Ca-HMB or water and are subjected to hind limb suspension for 14 days. For the hind limb suspension, tape is applied along the proximal one-third of the tail and then placed through a wire harness that is attached to a fishlike swivel at the top of a specially designed hind limb suspension cage. The suspension allowed the rats 360° of movement around the cage. Sterile gauze is wrapped around the tape and is subsequently covered with a thermoplastic material. […] The suspension height is monitored and adjusted to prevent contact between the hind limb and any supportive surface of the cage. […] The forelimbs maintain contact with a grid floor, which allows the animals to move, groom themselves, and obtain food and water freely.
(§6) After 14 days of hind limb suspension, the hind limbs are released. The R Group is further allowed normal cage ambulation for an additional 14 days and then data is collected prior to and following sacrifice.
Muscle fiber cross sectional area (CSA) is determined by planimetry from 750-1200 fibers that are obtained from four non-overlapping regions of each tissue cross-section is stained for lamina. Fiber CSA is calculated by the Image J software.

[3] = test system: satellite cells/muscle precursor cells; assay: Activation of satellite cells by BrdU labeling during reloading
Experimental: as §2, §3
Activated, proliferated satellite cells/muscle precursor cells were identified by immunofluorescence staining on BrdU and laminin as described previously (Siu 2005). […] The sections were finally stained with 4′,6-diamidino-2-phenylindole (DAPI) and examined under a fluorescence microscope with excitation wavelengths of 330-380 nm for DAPI blue fluorescence, 485-585 nm for Cy3 red fluorescence, and 450-490 nm for fluorescein green fluorescence. […]

Bax = assay: Western immunoblot of Bax in hind limb muscles
Experimental: as §2, §3, §4

[4] = test system: soleus and plantaris muscles; assay: Muscle wet weight after hind limb suspension and reloading
Experimental: as §1, §5, §6
(§7) Each animal is weighed at the beginning of the experiment, following 14 days of hind limb suspension and after 14 days of reloading. With the animals deeply anesthetized, the soleus and the plantaris muscles are removed from both limbs, then blotted, and weighed. Animals are euthanized following this procedure. A block obtained from the mid-belly of the muscle is embedded in optimal cutting temperature (OCT) compound (Tissue-Tek; Andwin Scientific, Addison, Ill.), snap frozen in liquid nitrogen-cooled isopentane, and stored at −80° C. The remainder of the muscle is snap frozen in liquid nitrogen and stored at −80° C. until needed for subsequent analyses.

[5] = Body weight of aged rats after hind limb suspension and reloading
Experimental: as §1, §5, §6, §7

[6] = test system: TUNEL positive myonuclei in plantaris and soleus muscles; assay: Apoptotic myonuclei identified by TUNEL labeling (apoptotic index)
Experimental: as §1
The remaining thirty-two rats (16 rats in HS Group and 16 rats in R Group) continue to receive either Ca-HMB or water and are subjected to hind limb suspension for 14 days. For the hind limb suspension, tape is applied along the proximal one-third of the tail and then placed through a wire harness that is attached to a fishlike swivel at the top of a specially designed hind limb suspension cage. […] The suspension height is monitored and adjusted to prevent contact between the hind limb and any supportive surface of the cage. […]
10-μm-thick frozen cross sections from soleus and plantaris muscles are mounted on charged microscope slides (Fisher Scientific, Pittsburgh, Pa.). […] The number of TUNEL- and DAPI-positive nuclei that are immediately adjacent to, or beneath, the basal lamina is counted. Data is expressed as an apoptotic index, which is calculated by counting the number of TUNEL-positive nuclei divided by the total number of nuclei (i.e., DAPI-positive nuclei). The apoptotic index is determined from ˜1200 fibers, which are obtained from four non-overlapping regions of each tissue cross section.

cleaved caspase-9 = assay: Western immunoblot of cleaved caspase-9 in hind limb muscles; conditions: plantaris and soleus muscles after both hind limb suspension and reloading, vs water-treated
Experimental: as §2, §3, §4

[7] = plantaris and soleus muscles after both hind limb suspension and reloading, vs water-treated
[8] = HS induced, stated for both HMB and vehicle-treated animals, P<0.001

SMILES: CC(C)(O)CC(=O)O [HMB, beta-hydroxy-beta-methylbutyrate]
- reduction of maximal in vivo plantarflexor isometric force by hind limb suspension ([1]; after 14 days of hind limb suspension): 23.7%
- loss in maximal isometric plantarflexor force compared to isometric force in control animals ([1]; after reloading, P<0.01 vs water-treated rats): 27.3%
- effect on loss of force ([1]; hind limb suspension and reloading): attenuate the loss of force
- Bcl-2 protein, difference between HMB and water-treated muscles (Bcl-2): may not be a significant difference
- cleaved caspase-3 protein abundance in control muscles (cleaved caspase-3; control muscles of ambulatory animals (HS Con and R Con), FIG. 9B): reduces the protein abundance
- cleaved caspase-3 protein abundance (cleaved caspase-3; [7]): suppresses the protein abundance
- HS-induced decrease in fiber CSA, plantaris ([2]; after HS, p<0.05 vs vehicle): 26.4%
- HS-induced decrease in fiber CSA, soleus ([2]; after HS, p<0.05 vs vehicle): 32.5%
- frequency of fibers<1500 μm^2 ([2]; plantaris and soleus, recovered for 14 days following HS, Chi-squared analyses): significantly greater in the plantaris and soleus muscles of vehicle-treated animals as compared to HMB-treated animals
- effect on fiber CSA after reloading as compared to HS ([2]; plantaris or soleus muscles, after 14 days of reloading): did not further improve
- number of BrdU positive nuclei relative to vehicle-treated rats ([3]; during recovery from muscle disuse): almost twice the number
- number of BrdU-positive nuclei to total nuclei ([3]; soleus, 14 day recovery period, mean+/−SE, p=0.001 vs control): 8.1+/−2%
- Bax protein abundance in control muscles (Bax; control muscles of ambulatory animals (HS Con and R Con), FIG. 7B): reduces the protein abundance
- Bax protein abundance (Bax; [7]): suppresses the protein abundance
- decrease in wet weight of the plantaris muscle [4, 8]: 19%
- decrease in wet weight of the soleus muscle [4, 8]: 15%
- effect on extent of HS-induced atrophy (muscle wet weight) ([4]; after 14 days of HS, relative to vehicle): did not significantly reduce
- effect on plantaris muscle weight ([4]; after 14 days of reloading relative to vehicle-treated animals): significantly improved
- effect against HS-induced loss in the soleus muscle (wet weight) ([4]; after HS, relative to vehicle-treated animals): did not provide protective effect
- body weight lowered by hind limb suspension ([5]; after 14 days of hind limb suspension, stated for both the HMB and water-treated groups): about 15%
- decrease in body weight compared to the body weight of control animals ([5]; after 14 days of reloading): 4%
- body weight reduced relative to the first experimental day ([5]; control rats (normal mobility) treated for five weeks): 7%
- body weight reduced relative to the first experimental day ([5]; control rats (normal mobility) treated for three weeks): 1.3%
- increase of apoptotic index by HS compared to ambulatory control animals, plantaris ([6]; after HS, p<0.05): 3.0 fold
- increase of apoptotic index by HS compared to ambulatory control animals, soleus ([6]; after HS, p<0.05): 1.8 fold
- effect on TUNEL labeling in myonuclei of reloaded muscles ([6]; reloaded plantaris and soleus muscles): continued to suppress TUNEL labeling
- cleaved caspase-9 protein abundance (cleaved caspase-9): suppresses the protein abundance
